As a reminder, the Ki is a dissociation constant, usually derived from enzyme kinetics or from competition with a known ligand. In general, solubility refers to the dissolved amount per volume that the medium holds. The EC50 is the concentration giving half of the maximal effect. High values mean a need for much substance, low ones an effect from little substance.

≈ marks a conversion by molar mass, not a printed value. A value given as a limit tells only on which side of the number the result lay.

The text below walks through data of ChEMBL document CHEMBL4229543, “Squaramides as novel class I and IIB histone deacetylase inhibitors for topical treatment of cutaneous t-cell lymphoma” (Bioorg Med Chem Lett, 2018).

Series [1] concerns the target T1, NAD-dependent protein deacetylase sirtuin-1 (Homo sapiens, UniProt Q96EB6).
T1 sequence (Q96EB6 whole entry): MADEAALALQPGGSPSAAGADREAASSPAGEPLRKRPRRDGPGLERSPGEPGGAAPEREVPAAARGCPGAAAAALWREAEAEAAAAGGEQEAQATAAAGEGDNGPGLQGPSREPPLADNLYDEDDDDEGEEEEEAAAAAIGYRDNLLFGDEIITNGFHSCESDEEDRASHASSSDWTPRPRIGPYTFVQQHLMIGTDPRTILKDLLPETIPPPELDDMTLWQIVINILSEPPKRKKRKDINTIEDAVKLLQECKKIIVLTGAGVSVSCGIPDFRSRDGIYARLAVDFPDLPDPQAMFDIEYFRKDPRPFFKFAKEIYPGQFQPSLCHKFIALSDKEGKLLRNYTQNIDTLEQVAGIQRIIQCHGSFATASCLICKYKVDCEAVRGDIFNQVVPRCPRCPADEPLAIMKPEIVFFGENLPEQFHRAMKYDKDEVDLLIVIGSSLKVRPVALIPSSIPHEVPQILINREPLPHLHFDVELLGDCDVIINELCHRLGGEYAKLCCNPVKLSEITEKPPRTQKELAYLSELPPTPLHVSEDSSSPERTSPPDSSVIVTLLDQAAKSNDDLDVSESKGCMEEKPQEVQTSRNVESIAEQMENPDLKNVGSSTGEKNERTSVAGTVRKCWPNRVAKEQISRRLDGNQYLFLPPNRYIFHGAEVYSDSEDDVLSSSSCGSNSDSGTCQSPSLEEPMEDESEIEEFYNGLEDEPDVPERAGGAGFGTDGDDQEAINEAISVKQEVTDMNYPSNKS
The series is described as follows: Inhibition of human recombinant SIRT1 using fluorogenic HDAC substrate after 20 mins by fluorimetrc method.

Series [2] concerns the target T2, NAD-dependent protein deacetylase sirtuin-7 (Homo sapiens, UniProt Q9NRC8).
T2 sequence (Q9NRC8 whole entry): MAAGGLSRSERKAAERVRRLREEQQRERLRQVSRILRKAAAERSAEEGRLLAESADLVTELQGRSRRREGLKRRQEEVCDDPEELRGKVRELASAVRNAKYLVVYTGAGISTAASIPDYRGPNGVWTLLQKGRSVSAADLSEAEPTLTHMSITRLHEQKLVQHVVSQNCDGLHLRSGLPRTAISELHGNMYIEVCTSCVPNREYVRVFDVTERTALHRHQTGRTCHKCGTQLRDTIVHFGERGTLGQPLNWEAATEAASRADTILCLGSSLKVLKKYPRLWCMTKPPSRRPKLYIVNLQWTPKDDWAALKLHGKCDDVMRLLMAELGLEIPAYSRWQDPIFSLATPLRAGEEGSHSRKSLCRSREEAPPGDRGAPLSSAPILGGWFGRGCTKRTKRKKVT
The series can be described thus: Inhibition of SIRT7 (unknown origin).

For series [3], the target named is T3, NAD-dependent protein deacetylase sirtuin-3, mitochondrial (Homo sapiens, UniProt Q9NTG7).
T3 sequence (Q9NTG7 whole entry): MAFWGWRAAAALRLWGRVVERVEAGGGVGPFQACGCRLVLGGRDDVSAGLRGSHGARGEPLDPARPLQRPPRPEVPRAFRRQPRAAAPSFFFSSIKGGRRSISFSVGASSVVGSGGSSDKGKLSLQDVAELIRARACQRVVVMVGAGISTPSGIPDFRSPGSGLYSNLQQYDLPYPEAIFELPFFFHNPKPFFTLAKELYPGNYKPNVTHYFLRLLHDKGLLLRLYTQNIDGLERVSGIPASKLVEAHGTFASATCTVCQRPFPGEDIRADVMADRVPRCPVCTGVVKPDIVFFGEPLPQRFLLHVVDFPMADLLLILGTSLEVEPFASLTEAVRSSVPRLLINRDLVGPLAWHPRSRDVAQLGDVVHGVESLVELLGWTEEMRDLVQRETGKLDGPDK
The series is described as follows: Inhibition of human recombinant SIRT3 using fluoro-lysine sirtuin 2 deacetylase substrate after 45 mins by fluorimetrc method.

The nature of series [4]: Clearance in human hepatocytes assessed per million cells at 1 uM after 5 to 90 mins by LC-MS/MS analysis. It is filed as ADME, cell-based, Hepatocyte. To be noted: read-out: CLH.
Series [5] concerns the target T4, NAD-dependent protein deacetylase sirtuin-2 (Homo sapiens, UniProt Q8IXJ6).
T4 sequence (Q8IXJ6 whole entry): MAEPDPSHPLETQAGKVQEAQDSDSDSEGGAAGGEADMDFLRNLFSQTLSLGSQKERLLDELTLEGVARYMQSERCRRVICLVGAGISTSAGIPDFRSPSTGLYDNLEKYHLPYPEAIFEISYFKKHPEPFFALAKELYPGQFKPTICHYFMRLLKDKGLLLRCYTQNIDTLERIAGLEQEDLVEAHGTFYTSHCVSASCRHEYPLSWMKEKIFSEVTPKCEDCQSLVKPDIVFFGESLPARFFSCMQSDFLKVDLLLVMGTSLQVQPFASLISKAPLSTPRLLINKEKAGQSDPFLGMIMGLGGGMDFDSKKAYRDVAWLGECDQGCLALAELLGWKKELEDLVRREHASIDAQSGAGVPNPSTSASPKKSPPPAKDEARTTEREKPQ
The series can be described thus: Inhibition of human recombinant SIRT2 using fluoro-lysine sirtuin 2 deacetylase substrate after 60 mins by fluorimetrc method.

A short description of series [6]: Solubility in pH 7.4 phosphate buffer solution at 100 uM after 24 hrs by HPLC method. It is filed as physicochemical.
Series [7] has as its system HuT78. The series can be described thus: Pro-apoptotic activity in human HUT78 cells after 18 hrs by caspase-Glo 3/7 assay. It is filed as functional, cell-based. The settings on record: HuT78, 18 h.
Series [8] in a line: Solubility in PG/EtOH (96%) at 30 mg/mL after 24 hrs by UV-spectrometric method. It is filed as physicochemical. To be noted: PG/EtOH (96%).
The target of series [9] is Histone deacetylase 9 (Homo sapiens, UniProt Q9UKV0). The series can be described thus: Inhibition of human recombinant HDAC9 using fluorogenic HDAC substrate class 2a after 30 mins by fluorimetrc method.
Chain of Histone deacetylase 9 (Q9UKV0 whole entry): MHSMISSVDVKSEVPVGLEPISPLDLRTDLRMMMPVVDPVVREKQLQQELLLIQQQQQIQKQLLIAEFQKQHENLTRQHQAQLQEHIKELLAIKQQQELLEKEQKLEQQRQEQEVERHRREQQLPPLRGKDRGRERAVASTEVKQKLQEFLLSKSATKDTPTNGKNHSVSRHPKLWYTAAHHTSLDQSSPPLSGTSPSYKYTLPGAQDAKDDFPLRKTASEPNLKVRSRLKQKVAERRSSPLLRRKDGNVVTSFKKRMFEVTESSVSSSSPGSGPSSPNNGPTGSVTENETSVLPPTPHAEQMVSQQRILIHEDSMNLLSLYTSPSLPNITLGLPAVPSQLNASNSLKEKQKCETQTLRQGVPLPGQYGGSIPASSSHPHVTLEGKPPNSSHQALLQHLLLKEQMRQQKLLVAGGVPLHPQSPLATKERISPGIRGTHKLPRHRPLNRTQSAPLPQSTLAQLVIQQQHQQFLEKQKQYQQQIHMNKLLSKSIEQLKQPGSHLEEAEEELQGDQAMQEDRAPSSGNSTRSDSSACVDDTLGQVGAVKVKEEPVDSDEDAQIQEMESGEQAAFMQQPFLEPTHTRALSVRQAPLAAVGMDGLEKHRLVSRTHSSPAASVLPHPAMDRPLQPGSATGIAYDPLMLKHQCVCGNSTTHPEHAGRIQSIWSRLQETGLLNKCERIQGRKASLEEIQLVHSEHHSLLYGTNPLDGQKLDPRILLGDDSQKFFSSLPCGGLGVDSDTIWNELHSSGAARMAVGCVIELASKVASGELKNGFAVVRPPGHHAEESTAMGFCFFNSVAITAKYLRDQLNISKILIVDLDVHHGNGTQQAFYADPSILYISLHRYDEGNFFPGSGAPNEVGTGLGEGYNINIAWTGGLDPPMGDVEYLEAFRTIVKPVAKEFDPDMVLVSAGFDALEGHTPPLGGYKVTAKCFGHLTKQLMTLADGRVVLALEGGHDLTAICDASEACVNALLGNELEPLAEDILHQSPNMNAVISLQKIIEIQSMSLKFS
Series [10] deals with T5, Polyamine deacetylase HDAC10 (Homo sapiens, UniProt Q969S8).
T5 sequence (Q969S8 whole entry): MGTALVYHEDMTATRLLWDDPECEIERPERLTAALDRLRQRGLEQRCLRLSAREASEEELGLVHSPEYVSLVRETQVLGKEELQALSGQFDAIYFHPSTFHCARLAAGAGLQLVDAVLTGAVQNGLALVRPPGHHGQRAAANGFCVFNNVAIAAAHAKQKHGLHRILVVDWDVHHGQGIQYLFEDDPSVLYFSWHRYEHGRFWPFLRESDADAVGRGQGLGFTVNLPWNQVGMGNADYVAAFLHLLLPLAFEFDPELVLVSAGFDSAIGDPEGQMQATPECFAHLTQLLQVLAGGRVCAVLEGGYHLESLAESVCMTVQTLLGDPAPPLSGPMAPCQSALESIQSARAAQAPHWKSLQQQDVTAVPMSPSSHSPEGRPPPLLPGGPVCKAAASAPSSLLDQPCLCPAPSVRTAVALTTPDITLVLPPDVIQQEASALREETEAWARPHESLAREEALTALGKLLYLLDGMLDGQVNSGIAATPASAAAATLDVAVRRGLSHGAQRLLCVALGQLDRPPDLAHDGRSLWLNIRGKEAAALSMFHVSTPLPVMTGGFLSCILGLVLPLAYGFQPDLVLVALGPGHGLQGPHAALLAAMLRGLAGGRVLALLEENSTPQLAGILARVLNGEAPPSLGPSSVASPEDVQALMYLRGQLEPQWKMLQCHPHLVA
The series can be described thus: Inhibition of human recombinant HDAC10 using fluorogenic HDAC substrate after 45 mins by fluorimetrc method.

For series [11], the target named is Histone deacetylase 5 (Homo sapiens, UniProt Q9UQL6). The series can be described thus: Inhibition of human recombinant HDAC5 using fluorogenic HDAC substrate class 2a after 30 mins by fluorimetrc method.
Chain of Histone deacetylase 5 (Q9UQL6 whole entry): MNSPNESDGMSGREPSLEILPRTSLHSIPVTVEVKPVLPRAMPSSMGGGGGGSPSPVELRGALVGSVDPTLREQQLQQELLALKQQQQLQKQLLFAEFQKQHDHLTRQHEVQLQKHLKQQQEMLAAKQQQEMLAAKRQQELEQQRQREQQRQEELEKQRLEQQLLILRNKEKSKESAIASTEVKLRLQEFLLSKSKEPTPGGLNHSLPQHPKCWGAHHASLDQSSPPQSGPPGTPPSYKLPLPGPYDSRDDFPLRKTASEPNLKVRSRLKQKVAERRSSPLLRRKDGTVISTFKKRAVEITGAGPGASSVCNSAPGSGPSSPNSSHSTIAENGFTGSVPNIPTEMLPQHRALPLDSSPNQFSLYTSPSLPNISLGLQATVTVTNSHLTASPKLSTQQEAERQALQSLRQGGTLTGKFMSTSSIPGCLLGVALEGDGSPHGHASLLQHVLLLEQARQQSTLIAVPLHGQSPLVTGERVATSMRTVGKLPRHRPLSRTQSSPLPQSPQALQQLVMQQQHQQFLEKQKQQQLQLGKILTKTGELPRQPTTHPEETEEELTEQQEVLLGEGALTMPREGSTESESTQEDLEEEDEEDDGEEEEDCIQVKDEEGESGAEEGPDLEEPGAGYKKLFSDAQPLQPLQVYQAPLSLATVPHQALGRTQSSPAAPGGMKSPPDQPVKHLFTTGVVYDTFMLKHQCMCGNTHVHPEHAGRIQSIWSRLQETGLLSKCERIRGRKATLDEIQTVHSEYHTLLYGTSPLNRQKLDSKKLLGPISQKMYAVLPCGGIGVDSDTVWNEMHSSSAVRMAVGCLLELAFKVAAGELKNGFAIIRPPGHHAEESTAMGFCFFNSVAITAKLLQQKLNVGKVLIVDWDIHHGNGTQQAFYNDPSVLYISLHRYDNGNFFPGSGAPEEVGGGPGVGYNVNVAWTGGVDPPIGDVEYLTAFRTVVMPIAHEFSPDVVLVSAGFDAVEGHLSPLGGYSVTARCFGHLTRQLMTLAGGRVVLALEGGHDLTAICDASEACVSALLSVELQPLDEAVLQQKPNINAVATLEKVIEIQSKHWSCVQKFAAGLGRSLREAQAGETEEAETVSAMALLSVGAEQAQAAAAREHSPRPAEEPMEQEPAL

Regarding `Cc1[nH]c2ccccc2c1CCNCc1ccc(/C=C/C(=O)NO)cc1` [PANOBINOSTAT], the Ki in series [1], in series [2], in series [3] and in [5] was more than 10000 nM throughout. Besides, in series [4], the hepatocyte CLint at 1 µM turned out to be 8.5 µL/min/1e6 cells. This compound also returned a solubility at 24 h, 100 µM in series [6] (phosphate buffer, pH 7.4) of 0.069 mM (≈ 24.1 µg/mL). In [7], this compound registered a half-maximal effective concentration (EC50) of 4.3 nM. Also, the solubility at 24 h in series [8] stood at 20 mM (≈ 6990 µg/mL).
Regarding `Cn1cc(CNCC2CCN(c3ncc(C(=O)NO)cn3)CC2)c2ccccc21` [QUISINOSTAT], the Ki in [9] was 5.3 nM; in [1], more than 10000 nM; in [2] it was more than 10000 nM; in series [10], 4.4 nM; in series [3], more than 10000 nM; in series [11], 4.3 nM. In addition, the Ki in [5] is more than 10000 nM. In addition, in series [4], the hepatocyte CLint at 1 µM turned out to be 9.8 µL/min/1e6 cells. The solubility in series [6] (buffer, pH 7.4, 24 h, 100 µM) was more than 0.097 mM. The same compound returned a concentration for a half-maximal effect (EC50) in [7] of 6.5 nM. For the same compound, the concentration in solution in series [8] (solubility at 24 h) was 9.1 mM (≈ 3590 µg/mL).
